{
  "source": "patent US8778897B2",
  "about": "“Method of treatment using α-1-adrenergic agonist compounds” (The Regents of the University of California, priority 2008, dated 2014)",
  "key": {"α1A receptors": {"system": "α1A receptors", "settings": "cited from earlier work"}, "[1]": {"experiment": "Dose finding study, daily tail cuff blood pressure in mice", "type": "in vivo", "procedure": "(§1) The alpha-1-adrenergic receptor agonist, A61603, was administered to 11 week-old wild type male C57BI6J mice using an osmotic minipump. Cardiomyopathy was induced with a single dose of doxorubicin (25 mg/kg) administered intraperitoneally. Blood pressure was measured by tail cuff, activated (phosphorylated) P-ERK by immunoblot, heart mRNA by RT-qPCR, fractional shortening (FS) by echocardiography (ECHO), myocyte necrosis by serum creatine kinase (CK), apoptosis by TUNEL stain, and fibrosis by Sirius red stain.\nIn a dose finding study, (0.01-100 μg/kg/day),\nA61603 at 10 ng/kg/day over 7 days had no effect on daily tail cuff blood pressure, as evidenced by the average blood pressure of the control, vehicle treated mice of 115±4 mmHg and the average blood pressure of the mice treated with A61603 of 119±4 mmHg."}, "α1A receptor": {"target": "T1, α1A receptor (Mus musculus, UniProt P97718)", "T1 construct": "host or cells: wild-type mice (whole animal, endogenous receptor)", "T1 sequence (P97718 1-466)": "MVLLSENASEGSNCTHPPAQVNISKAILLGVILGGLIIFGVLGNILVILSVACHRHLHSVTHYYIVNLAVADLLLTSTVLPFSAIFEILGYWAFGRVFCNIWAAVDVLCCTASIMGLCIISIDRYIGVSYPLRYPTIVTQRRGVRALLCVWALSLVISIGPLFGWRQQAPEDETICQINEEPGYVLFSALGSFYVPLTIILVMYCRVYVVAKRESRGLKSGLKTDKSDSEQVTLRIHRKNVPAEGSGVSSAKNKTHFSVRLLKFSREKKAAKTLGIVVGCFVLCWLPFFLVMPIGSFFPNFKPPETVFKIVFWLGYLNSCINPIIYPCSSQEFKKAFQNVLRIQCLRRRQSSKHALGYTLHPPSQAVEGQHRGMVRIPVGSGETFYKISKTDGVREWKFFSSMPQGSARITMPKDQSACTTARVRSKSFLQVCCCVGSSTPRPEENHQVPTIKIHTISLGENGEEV", "settings": "wild-type mice, infusion; cited from earlier work"}, "[2]": {"system": "wild type male C57BI6J mice", "experiment": "Doxorubicin-induced cardiomyopathy in wild type mice", "type": "in vivo", "settings": "single doxorubicin 25 mg/kg i.p., A61603 10 ng/kg/day or vehicle infused over 7 days; for Fibrosis area (%): Sirius red; for Fibrosis area (%) / TUNEL-positive / ECHO FS (%) / Serum CK (U/L): mean ± SE; for TUNEL-positive: apoptosis; for Survival 7 days (%): untreated 100", "procedure": "as §1\nA61603 at the non-hypertensive dose of 10 ng/kg/day or vehicle was infused over 7 days after a single injection of doxorubicin."}, "[3]": {"system": "alpha-1A adrenergic receptor", "experiment": "Doxorubicin-induced cardiomyopathy in alpha-1A-subtype knock-out mice", "type": "in vivo"}, "α1A-AR": {"system": "α1A-AR", "settings": "α1A-AR knock-out mice, infusion; cited from earlier work"}},
  "data": [
    {"smiles": "Br.CS(=O)(=O)Nc1c(O)ccc2c1CCCC2C1=NCCN1", "note": "(stereo not drawn) [A61603, N-[5-(4,5-Dihydro-1H-imidazol-2-yl)-2-hydroxy-5,6,7,8-tetrahydronaphthalen-1-yl]methanesulfonamide hydrobromide]", "values": [
      {"measurement": "potency at α1A receptors relative to α1B or α1D sites", "setting": "α1A receptors", "result": "at least 35 fold"},
      {"measurement": "potency as α1A AR agonist compared with phenylephrine", "setting": "α1A receptors; versus non-selective α1 AR agonist phenylephrine", "result": "more potent"},
      {"measurement": "effect on daily tail cuff blood pressure", "setting": "[1]; 10 ng/kg/day over 7 days", "result": "no effect"},
      {"measurement": "average blood pressure", "setting": "[1]; 10 ng/kg/day over 7 days, osmotic minipump, tail cuff, vehicle control 115±4 mmHg", "result": "119±4", "unit": "mmHg"},
      {"measurement": "effect on blood pressure at higher doses", "setting": "[1]; doses higher than 10 ng/kg/day (range 0.01-100 μg/kg/day)", "result": "increased blood pressure"},
      {"measurement": "EC50 for increase of mean arterial pressure", "setting": "α1A receptor", "result": 0.3, "unit": "µg/kg"},
      {"measurement": "increased mean arterial pressure (MAP)", "setting": "α1A receptor", "result": 35, "unit": "mm Hg"},
      {"measurement": "increased mean arterial pressure (MAP) over basal", "setting": "α1A receptor", "result": 25, "unit": "%"},
      {"measurement": "Fibrosis area (%)", "setting": "[2]", "result": "25 ± 1", "unit": "%"},
      {"measurement": "TUNEL-positive", "setting": "[2]", "result": "0.5 ± 0.1"},
      {"measurement": "ECHO FS (%)", "setting": "[2]", "result": "67 ± 1", "unit": "%"},
      {"measurement": "Serum CK (U/L)", "setting": "[2]", "result": "571 ± 67", "unit": "U/L"},
      {"measurement": "Survival 7 days (%)", "setting": "[2]", "result": 100, "unit": "%"},
      {"measurement": "benefit of A61603 against doxorubicin cardiomyopathy", "setting": "[3]; data not shown", "result": "no beneficial result"},
      {"measurement": "effect on mean arterial pressure", "setting": "α1A-AR", "result": "no effect"}
    ]},
    {"smiles": "COc1cccc2c1C(=O)c1c(O)c3c(c(O)c1C2=O)C[C@@](O)(C(=O)CO)C[C@@H]3O[C@H]1C[C@H](N)[C@H](O)[C@H](C)O1", "note": "[Doxorubicin, doxorubicin, reference compound]", "values": [
      {"measurement": "Fibrosis area (%)", "setting": "[2]", "result": "32 ± 1", "unit": "%"},
      {"measurement": "TUNEL-positive", "setting": "[2]", "result": "1.3 ± 0.2"},
      {"measurement": "ECHO FS (%)", "setting": "[2]", "result": "55 ± 3", "unit": "%"},
      {"measurement": "Serum CK (U/L)", "setting": "[2]", "result": "1204 ± 98", "unit": "U/L"},
      {"measurement": "Survival 7 days (%)", "setting": "[2]", "result": 60, "unit": "%"},
      {"measurement": "apoptosis and mortality compared with wild-type mice", "setting": "[3]; doxorubicin", "result": "increased apoptosis and mortality"}
    ]}
  ]
}
